Experimental data from patent US9381260B2, “Hypoxia inducible factor-1 pathway inhibitors and uses as anticancer and imaging agents” (EMORY UNIVERSITY, priority 2011, dated 2016).
Converted amounts (≈) assume the structure as drawn.

Assays:
[1] = log P7.4 by shake flask or HPLC method (OECD guidelines); format: physicochemical; conditions: pH 7.4
Method: Experimental determinations of log P7.4, aqueous solubility, and metabolic stability of a selected number of the heteroarylsulfonamides were performed to further characterize the compounds (Table 2 log P7.4 was measured by either the shake flask method (6a, 6g) or the HPLC method (1, 6b-6f, 6h-6l) according to OECD guidelines. Most compounds followed the trends predicted by in silico calculations, and the measured values were smaller than the predicted values by 1.0-1.5. When a methoxy group or hydroxyl group is placed at the C-8 position of the chromene ring instead of a hydrogen, as in 6g, 6h, and 6l, the log P7.4 value decreased by more than 2 from the predicted values to result in 1.2-1.3. The presence of a 2-methylpropan-2-yl group in region 2 conferred high log P7.4 values, and heteroarylsulfonyl groups in region 1 also affected log P7.4 values, as shown for 6c, 6i, 6j, and 6k.

[2] = Aqueous solubility by HPLC-UV on filtered saturated suspensions; format: physicochemical; conditions: for aqueous solubility (n = 3) / solubility: HPLC-UV, saturated aqueous suspension, PTFE filter 0.2 μm; for aqueous solubility relative to 1: fold more soluble than compound 1; for solubility: water, thermodynamic from solid, read-out: aqueous solubility (n = 3)
Source text: Aqueous solubilities of 1, 6a, 6d, and 6g were quantified by HPLC coupled with a UV detector on saturated aqueous suspensions after filtration with a polytetrafluoroethylene (PTFE) filter (pore size 0.2 μm). 6a and 6d were chosen due to their strong activity in the HRE-reporter assay, and 6g was picked to evaluate the influence of the methoxy group attached to the C-8 position of the chromene ring. Aqueous solubilities of 6a, 6d, and 6g are, respectively, 100, 20, and 9000 times better than that of 1, which are consistent with the log Sw predictions for 6a and 6d. The substitution of hydrogen with a methoxy group at the C-8 position of the chromene ring increased the aqueous solubility by 90 times (compare 6a and 6g).

[3] = Metabolic stability in homogenates of mouse liver; format: in vitro ADME; conditions: homogenates of mouse liver in PBS 1:2 (w/v), ex vivo; for half-life: mouse, mouse liver homogenate, read-out: half-life (hepatic metabolic stability) (converted)
Method: Metabolic stabilities of 1, 6a, 6d, 6g, and 6l were measured in mouse plasma and homogenates of mouse liver in PBS [1:2 (w/v)].

[4] = test system: HIF-1α; assay: HIF-1α protein levels by Western blot in LN229-V6R cells under hypoxia; format: cell-based, human; conditions: 24 h; for effect on HIF-1α protein levels: 3-100 μM
Method: HIF-1 is a heterodimer of HIF-1α and HIF-1β subunits, which then associates with p300 or CBP cofactors to form an active transcriptional complex. […] To determine whether the heteroarylsulfonamides retain this property, we determined the levels of HIF-1α protein under hypoxia in LN229-V6R cells. […] We investigated if the levels of HIF-1α protein would correlate with transcriptional inhibition of the HRE reporter by the compounds. LN229-V6R cells were treated with the compounds at concentrations of 3, 6, 12, 25, 50, and 100 μM under hypoxia for 24 h, and then HIF-1α protein levels in the cell extracts were examined by Western blotting. […] 6g and 61 decreased HIF-1a levels in a dose-dependent fashion starting from 12 and 25 μM, respectively (FIG. 3). […] The reduction in HIF-1α levels afforded by all three compounds at 100 μM may reflect nonspecific cytotoxicity.

[5] = test system: LN229 human glioblastoma cells; assay: Clonogenicity assay LN229; format: cell-based; conditions: LN-229, 336 h, 14 days
Source text: (§1) To determine whether 6a, 6g, and 6l altered tumor cell growth in culture, we performed sulforhodamine B (SRB) assays in LN229-V6R glioma cells in 3 days, and to further examine the cell growth inhibitory activity of 6a, 6g, and 61 in an independent biological assay, we performed clonogenicity assays in LN229 human glioblastoma cells and HFF-1 immortalized human fibroblasts, over a period of 14 days.

[6] = test system: HFF-1 immortalized human fibroblasts; assay: Clonogenicity assay HFF-1; format: cell-based; conditions: HFF-1, 336 h, 14 days
Source text: as §1

[7] = test system: HIF-1 transcriptional activity; assay: HIF-inducible luciferase reporter assay in LN229-V6R cells under hypoxia; format: cell-based, human
Method: (§2) Results are plotted as percent of luciferase activity found in extracts of untreated cells used as controls. (A) Luciferase activity in extracts of LN229-V6R cells, which contain a HIF-inducible luciferase reporter gene. The cells were grown under hypoxia to activate HIF. (B) Luciferase activity in extracts of LN229-Lux cells, which contain a constitutively expressed luciferase reporter gene. Results shown are from cells grown under normoxia; similar results were obtained under hypoxia.
(§3) The effects of the 12 heteroarylsulfonamides on HIF transcriptional activity under hypoxia were measured by determining the luciferase activity present in LN229-V6R cells, which contain a stably integrated hypoxia/HIF inducible luciferase reporter gene. As a control for the absence of inhibition on luciferase enzyme per se, we also tested 1 and five heteroarylsulfonamides in LN229-Lux cells that contain a constitutive luciferase reporter gene driven by a retroviral LTR promoter. An Hsp90 inhibitor, 17-DMAG, and 1 were used as positive controls. […] The heteroarylsulfonamides decreased HIF-1 activity in a dose-dependent fashion with IC50 values below (6a, 6b, 6d-6f, 6h, 6i, 6l) or close to 5 μM (6c, 6g, 6j, 6k) (FIG. 2).

[8] = test system: LN229-Lux cells (constitutive luciferase reporter gene); assay: Constitutive luciferase reporter control assay in LN229-Lux cells; format: cell-based, human; conditions: control for luciferase inhibition
Method: as §2, §3

[9] = Aqueous solubility by laser nephelometry at pH 3.0, 5.0, 7.4; format: physicochemical; conditions: pH 5.0 and pH 3.0 versus pH 7.4

CC(C)CN(Cc1ccc2c(c1)C=CC(C)(C)O2)S(=O)(=O)c1ccccn1 [Compound 6c, N-[(2,2-Dimethyl-2H-chromen-6-yl)methyl]-N-(2-methylpropyl)pyridine-2-sulfonamide]
log P7.4 [1]: 4.1

CC(C)CN(Cc1ccc2c(c1)C=CC(C)(C)O2)S(=O)(=O)c1nccs1 [Compound 6k, N-[(2,2-Dimethyl-2H-chromen-6-yl)methyl]-N-(2-methylpropyl)-1,3-thiazole-2-sulfonamide]
log P7.4 [1]: 4.4

CC1(C)C=Cc2cc(CN(CC3CC3)S(=O)(=O)c3ccccn3)ccc2O1 [Compound 6d, N-(Cyclopropylmethyl)-N-[(2,2-dimethyl-2H-chromen-6-yl)methyl]pyridine-2-sulfonamide]
log P7.4 [1]: 3.1
aqueous solubility (n = 3) [2]: 0.2 ± 0.07 µM (≈ 0.0769 µg/mL)
aqueous solubility relative to 1 [2]: 20 times
solubility [2]: 0.1 µg/mL (≈ 0.26 µM)
half-life (hepatic metabolic stability) [3]: 13 h
half-life [3]: 13 to 20 h

COc1cc(CN(C(C)C)S(=O)(=O)c2ccccn2)cc2c1OC(C)(C)C=C2 [Compound 6g]
concentration from which HIF-1α levels decreased dose-dependently [4]: 12 µM
aqueous solubility relative to 1 [2]: 9000 times
half-life (hepatic metabolic stability) [3]: 15 h
half-life [3]: 13 to 20 h
IC50 ([5]; LN229, hypoxia): > 100 µM
IC50 ([5]; LN229, normoxia): 69 µM
IC50 ([6]; HFF-1, hypoxia): > 100 µM
IC50 ([6]; HFF-1, normoxia): 55 µM

CC1(C)C=Cc2cc(CN(C3CC3)S(=O)(=O)c3ccccn3)ccc2O1 [Compound 6b, N-Cyclopropyl-N-[(2,2-dimethyl-2H-chromen-6-yl)methyl]pyridine-2-sulfonamide]
IC50 ([7]; Homo sapiens, LN229-V6R cells): < 5 µM
log P7.4 [1]: 3.0

CC(C)CN(Cc1ccc2c(c1)C=CC(C)(C)O2)S(=O)(=O)c1nccn1C [Compound 6j, N-[(2,2-Dimethyl-2H-chromen-6-yl)methyl]-N-(2-methylpropyl)-1-methyl-1H-imidazole-2-sulfonamide]
log P7.4 [1]: 3.1

CC1(C)C=Cc2cc(CN(C3CCC3)S(=O)(=O)c3ccccn3)ccc2O1 [Compound 6e, N-(Cyclobutyl)-N-[(2,2-dimethyl-2H-chromen-6-yl)methyl]pyridine-2-sulfonamide]
log P7.4 [1]: 3.0

COc1ccc(S(=O)(=O)N(Cc2ccc3c(c2)C=CC(C)(C)O3)c2ccccc2)cc1OC [Compound 1, 3,4-Dimethoxy-N-[(2,2-dimethyl-2H-chromene-6-yl)methyl]-N-phenylbenzenesulfonamide, reference compound]
activity at 2.5 µM ([7]; Homo sapiens, 2.5 μM, LN229-V6R cells, read-out: remaining HIF-1 activity at 2.5 μM, % of control): 18%
effect on luciferase activity in LN229-Lux cells [8]: reduced luciferase activity only in LN229-V6R cells
effect on HIF-1α protein levels [4]: does not antagonize hypoxia-induced HIF-1α expression
log P7.4 [1]: 3.7
aqueous solubility (n = 3) [2]: 0.009 µM (≈ 0.00419 µg/mL)
solubility [2]: 0.003 µg/mL (≈ 0.00644 µM)
effect of low pH on aqueous solubility [9]: pH did not affect aqueous solubility
half-life [3]: 11 h

CO[C@H]1/C=C\C=C(/C)C(=O)NC2=CC(=O)C(NCCN(C)C)=C(C[C@@H](C)C[C@H](OC)[C@H](O)[C@@H](C)/C=C(\C)[C@@H]1OC(N)=O)C2=O [17-DMAG, reference compound]
effect on luciferase activity in LN229-V6R cells [7]: inhibited
effect on luciferase activity in LN229-Lux cells [8]: inhibited

CC1(C)C=Cc2cc(CN(C3CCCC3)S(=O)(=O)c3ccccn3)ccc2O1 [Compound 6f, N-(Cyclopentyl)-N-[(2,2-dimethyl-2H-chromen-6-yl)methyl]pyridine-2-sulfonamide]
log P7.4 [1]: 3.8

CC(C)N(Cc1ccc2c(c1)C=CC(C)(C)O2)S(=O)(=O)c1ccccn1 [Compound 6a, N-[(2,2-Dimethyl-2H-chromen-6-yl)methyl]-N-(propan-2-yl)pyridine-2-sulfonamide]
inhibition of HIF-1 transcriptional activity (HRE-reporter) at 10 μM ([7]; 10 μM, LN229-V6R cells, 1 day): inhibited completely
IC50 ([7]; Homo sapiens, LN229-V6R cells): < 5 µM
effect on HIF-1α protein levels [4]: no effect on HIF-1α levels at all concentrations tested, except for a slight reduction at the highest concentration (100 μM)
log P7.4 [1]: 2.0
aqueous solubility (n = 3) [2]: 1 ± 0.1 µM (≈ 0.372 µg/mL)
aqueous solubility relative to 1 [2]: 100 times
solubility [2]: 0.3 µg/mL (≈ 0.805 µM)
effect of low pH on aqueous solubility [9]: 50-60 times
half-life (hepatic metabolic stability) [3]: 20 h
half-life [3]: 13 to 20 h
IC50 ([5]; LN229, hypoxia): 134 µM
IC50 ([5]; LN229, normoxia): 82 µM
IC50 ([6]; HFF-1, hypoxia): 93 µM
IC50 ([6]; HFF-1, normoxia): 62 µM

CC(C)CN(Cc1ccc2c(c1)C=CC(C)(C)O2)S(=O)(=O)c1ccncc1 [Compound 6i, N-[(2,2-Dimethyl-2H-chromen-6-yl)methyl]-N-(2-methylpropyl)pyridine-4-sulfonamide]
IC50 ([7]; Homo sapiens, LN229-V6R cells): < 5 µM
log P7.4 [1]: 3.6
